# Reference: PMC5762315, “Inhibition of polo-like kinase 4 (PLK4): a new therapeutic option for rhabdoid tumors and pediatric medulloblastoma” (Oncotarget, 2017)
# “And” between values parts separate entries of the source, which are not always exact repeats. Identical values can stand only once.
# Legend:
# Experiment in all cases: biochemical
# Type in all cases: biochemical
# [1] = molecular target: various kinases (Homo sapiens, UniProt P00533, G719C); settings: EGFR (ErbB1) G719C
# [2] = molecular target: various kinases (Homo sapiens, UniProt P05129); settings: kinase PRKCG (PKC gamma); ZLYTE
# [3] = molecular target: various kinases (Homo sapiens, UniProt P07332); settings: FES (FPS)
# [4] = molecular target: various kinases (Homo sapiens, UniProt P10721, V559D/V654A); settings: KIT V559D V654A
# [5] = molecular target: various kinases (Homo sapiens, UniProt P10721, V560G); settings: KIT V560G
# [6] = molecular target: various kinases (Homo sapiens, UniProt P15735); settings: PHKG2
# [7] = molecular target: various kinases (Homo sapiens, UniProt P21802); settings: FGFR2
# [8] = molecular target: various kinases (Homo sapiens, UniProt P22455); settings: FGFR4
# [9] = molecular target: various kinases (Homo sapiens, UniProt P31749); settings: AKT1 (PKB alpha)
# [10] = molecular target: T1, various kinases (Homo sapiens, UniProt P41743); settings: kinase PRKCI (PKC iota); ZLYTE
# T1 sequence (P41743 1-596): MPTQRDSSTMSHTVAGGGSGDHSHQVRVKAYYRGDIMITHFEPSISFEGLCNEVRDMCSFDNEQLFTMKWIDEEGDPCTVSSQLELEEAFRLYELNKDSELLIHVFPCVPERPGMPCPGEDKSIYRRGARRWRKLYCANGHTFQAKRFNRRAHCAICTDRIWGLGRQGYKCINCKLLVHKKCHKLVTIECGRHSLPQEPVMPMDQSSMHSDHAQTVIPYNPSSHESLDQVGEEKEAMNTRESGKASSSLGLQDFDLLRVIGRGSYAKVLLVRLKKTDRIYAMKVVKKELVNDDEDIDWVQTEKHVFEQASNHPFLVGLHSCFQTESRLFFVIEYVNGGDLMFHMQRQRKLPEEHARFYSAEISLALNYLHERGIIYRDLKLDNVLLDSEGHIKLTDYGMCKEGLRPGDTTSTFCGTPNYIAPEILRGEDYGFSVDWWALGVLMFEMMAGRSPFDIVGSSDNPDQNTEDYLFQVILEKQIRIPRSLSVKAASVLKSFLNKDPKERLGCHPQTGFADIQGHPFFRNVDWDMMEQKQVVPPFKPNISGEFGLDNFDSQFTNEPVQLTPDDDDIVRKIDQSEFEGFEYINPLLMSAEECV
# [11] = molecular target: various kinases (Homo sapiens, UniProt P49840); settings: GSK3A (GSK3 alpha)
# [12] = molecular target: various kinases (Homo sapiens, UniProt P78368); settings: CSNK1G2 (CK1 gamma 2)
# [13] = molecular target: various kinases (Homo sapiens, UniProt Q04912); settings: MST1R (RON)
# [14] = molecular target: various kinases (Homo sapiens, UniProt Q05397); settings: kinase PTK2 (FAK); ZLYTE
# [15] = molecular target: T2, various kinases (Homo sapiens, UniProt Q13976); settings: kinase PRKG1; ZLYTE
# T2 sequence (Q13976 1-671): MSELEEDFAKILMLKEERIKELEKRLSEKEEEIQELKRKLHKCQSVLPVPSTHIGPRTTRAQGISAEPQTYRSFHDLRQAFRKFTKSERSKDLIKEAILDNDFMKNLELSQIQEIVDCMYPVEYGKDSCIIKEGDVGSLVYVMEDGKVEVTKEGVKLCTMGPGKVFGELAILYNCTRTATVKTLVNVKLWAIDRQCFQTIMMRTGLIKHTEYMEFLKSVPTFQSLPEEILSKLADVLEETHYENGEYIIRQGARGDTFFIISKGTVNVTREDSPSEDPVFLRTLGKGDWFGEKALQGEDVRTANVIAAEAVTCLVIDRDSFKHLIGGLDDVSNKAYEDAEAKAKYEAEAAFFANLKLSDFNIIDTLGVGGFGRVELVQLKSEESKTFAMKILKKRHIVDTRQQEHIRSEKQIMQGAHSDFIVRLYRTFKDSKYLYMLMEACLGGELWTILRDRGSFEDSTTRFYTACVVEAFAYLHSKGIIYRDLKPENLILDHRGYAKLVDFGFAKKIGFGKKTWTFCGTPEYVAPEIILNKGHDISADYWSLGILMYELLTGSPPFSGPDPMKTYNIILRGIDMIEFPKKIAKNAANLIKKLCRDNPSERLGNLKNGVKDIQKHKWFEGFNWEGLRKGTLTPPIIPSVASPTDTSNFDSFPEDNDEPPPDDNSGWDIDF
# [16] = molecular target: various kinases (Homo sapiens, UniProt Q14680); settings: MELK
# [17] = molecular target: various kinases (Homo sapiens, UniProt Q6DT37); settings: CDC42 BPG (MRCKG)
# [18] = molecular target: various kinases (Homo sapiens, UniProt Q96L34); settings: MARK4
# [19] = molecular target: various kinases (Homo sapiens, UniProt Q96NX5); settings: CAMK1G (CAMKI gamma)
# [20] = molecular target: various kinases (Homo sapiens, UniProt Q96RG2); settings: PASK
# [21] = molecular target: various kinases (Homo sapiens, UniProt Q96SB4); settings: kinase SRPK1; ZLYTE
# [22] = molecular target: various kinases (Homo sapiens, UniProt Q9H422); settings: HIPK3 (YAK1)
# [23] = molecular target: various kinases (Homo sapiens, UniProt Q9P289); settings: MST4
# Wherever % Inhibition Average is given: test concentration or dose not given here.
# Wherever % Inhibition Duplicate #1 is given: test concentration or dose not given here.
# Wherever % Inhibition Duplicate #2 is given: test concentration or dose not given here.
# Sequence of various kinases (Homo sapiens, UniProt Q96SB4) (Q96SB4 whole entry): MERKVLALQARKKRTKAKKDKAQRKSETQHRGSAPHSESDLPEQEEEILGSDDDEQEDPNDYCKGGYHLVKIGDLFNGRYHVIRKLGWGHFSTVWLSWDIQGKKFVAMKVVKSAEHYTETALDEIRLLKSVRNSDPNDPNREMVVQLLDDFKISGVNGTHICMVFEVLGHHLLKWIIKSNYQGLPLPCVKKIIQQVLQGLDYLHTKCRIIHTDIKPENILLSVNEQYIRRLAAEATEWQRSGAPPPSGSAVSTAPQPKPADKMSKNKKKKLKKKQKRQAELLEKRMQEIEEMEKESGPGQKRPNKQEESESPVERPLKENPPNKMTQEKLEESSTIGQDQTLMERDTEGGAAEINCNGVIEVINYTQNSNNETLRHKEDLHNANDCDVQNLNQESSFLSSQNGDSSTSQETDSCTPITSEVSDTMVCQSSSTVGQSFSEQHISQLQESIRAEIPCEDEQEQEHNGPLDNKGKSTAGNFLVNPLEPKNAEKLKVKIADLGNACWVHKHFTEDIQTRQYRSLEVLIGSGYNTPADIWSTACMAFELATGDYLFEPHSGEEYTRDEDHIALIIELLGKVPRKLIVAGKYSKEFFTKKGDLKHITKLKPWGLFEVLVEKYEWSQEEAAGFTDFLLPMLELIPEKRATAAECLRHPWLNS
# Sequence of various kinases (Homo sapiens, UniProt Q05397) (Q05397 whole entry): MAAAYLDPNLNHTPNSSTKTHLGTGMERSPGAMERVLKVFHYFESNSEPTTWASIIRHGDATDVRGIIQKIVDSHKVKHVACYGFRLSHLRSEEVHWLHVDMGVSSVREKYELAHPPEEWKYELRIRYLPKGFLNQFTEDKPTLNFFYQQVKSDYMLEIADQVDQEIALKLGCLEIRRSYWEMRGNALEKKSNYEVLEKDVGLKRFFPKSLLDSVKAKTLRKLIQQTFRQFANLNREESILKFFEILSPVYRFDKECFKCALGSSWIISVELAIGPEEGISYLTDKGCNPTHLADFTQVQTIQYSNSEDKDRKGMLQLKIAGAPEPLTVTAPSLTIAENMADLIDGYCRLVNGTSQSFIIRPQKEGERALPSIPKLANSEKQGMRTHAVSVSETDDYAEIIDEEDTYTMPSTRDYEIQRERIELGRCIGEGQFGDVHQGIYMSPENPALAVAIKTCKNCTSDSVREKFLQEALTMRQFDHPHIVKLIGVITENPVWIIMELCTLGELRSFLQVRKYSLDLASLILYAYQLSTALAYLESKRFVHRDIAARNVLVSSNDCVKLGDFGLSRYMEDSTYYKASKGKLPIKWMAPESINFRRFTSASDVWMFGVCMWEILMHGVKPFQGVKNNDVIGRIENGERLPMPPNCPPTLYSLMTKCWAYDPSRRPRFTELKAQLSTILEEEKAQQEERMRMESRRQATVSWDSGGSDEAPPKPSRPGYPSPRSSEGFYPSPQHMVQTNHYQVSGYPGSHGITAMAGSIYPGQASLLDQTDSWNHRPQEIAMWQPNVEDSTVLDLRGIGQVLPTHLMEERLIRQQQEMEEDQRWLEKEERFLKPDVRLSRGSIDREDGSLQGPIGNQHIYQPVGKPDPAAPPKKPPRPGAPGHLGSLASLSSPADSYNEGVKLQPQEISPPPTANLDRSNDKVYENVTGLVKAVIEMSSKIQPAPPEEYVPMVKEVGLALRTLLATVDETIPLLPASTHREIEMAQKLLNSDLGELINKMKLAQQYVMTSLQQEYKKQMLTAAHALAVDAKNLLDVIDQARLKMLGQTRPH
# Sequence of various kinases (Homo sapiens, UniProt Q96NX5) (Q96NX5 whole entry): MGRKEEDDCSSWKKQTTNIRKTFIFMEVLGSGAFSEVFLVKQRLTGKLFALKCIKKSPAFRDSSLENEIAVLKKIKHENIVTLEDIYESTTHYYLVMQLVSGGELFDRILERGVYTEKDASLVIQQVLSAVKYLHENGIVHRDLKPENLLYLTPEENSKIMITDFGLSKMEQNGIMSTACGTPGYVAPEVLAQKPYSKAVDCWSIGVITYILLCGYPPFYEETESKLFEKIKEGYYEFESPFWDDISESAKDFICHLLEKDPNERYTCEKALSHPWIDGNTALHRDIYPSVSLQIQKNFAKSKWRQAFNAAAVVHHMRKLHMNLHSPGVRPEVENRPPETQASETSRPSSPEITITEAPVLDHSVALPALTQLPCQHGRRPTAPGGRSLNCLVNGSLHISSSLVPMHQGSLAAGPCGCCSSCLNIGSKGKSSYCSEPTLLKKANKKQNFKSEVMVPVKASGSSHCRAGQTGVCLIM
# Sequence of various kinases (Homo sapiens, UniProt Q96L34) (Q96L34 whole entry): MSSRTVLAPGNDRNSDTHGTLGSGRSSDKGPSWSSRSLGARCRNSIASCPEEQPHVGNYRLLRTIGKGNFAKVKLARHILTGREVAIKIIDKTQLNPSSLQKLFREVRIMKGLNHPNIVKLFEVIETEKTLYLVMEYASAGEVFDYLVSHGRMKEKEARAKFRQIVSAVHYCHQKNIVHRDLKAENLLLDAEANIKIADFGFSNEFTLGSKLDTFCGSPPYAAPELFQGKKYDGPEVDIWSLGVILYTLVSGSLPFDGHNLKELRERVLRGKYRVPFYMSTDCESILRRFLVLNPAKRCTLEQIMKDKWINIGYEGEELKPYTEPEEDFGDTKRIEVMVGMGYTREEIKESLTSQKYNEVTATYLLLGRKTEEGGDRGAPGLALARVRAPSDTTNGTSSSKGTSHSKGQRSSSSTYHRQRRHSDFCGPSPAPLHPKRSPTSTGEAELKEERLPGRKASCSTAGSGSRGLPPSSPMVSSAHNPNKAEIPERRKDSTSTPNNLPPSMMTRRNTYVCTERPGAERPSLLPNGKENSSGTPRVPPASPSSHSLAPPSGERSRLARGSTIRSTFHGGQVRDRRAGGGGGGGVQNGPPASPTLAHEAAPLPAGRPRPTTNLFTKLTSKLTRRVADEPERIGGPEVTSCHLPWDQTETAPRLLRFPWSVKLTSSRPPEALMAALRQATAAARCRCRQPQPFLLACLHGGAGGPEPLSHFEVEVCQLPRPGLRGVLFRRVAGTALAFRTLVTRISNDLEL
# Sequence of various kinases (Homo sapiens, UniProt P00533, G719C) (P00533 25-1210 G719C): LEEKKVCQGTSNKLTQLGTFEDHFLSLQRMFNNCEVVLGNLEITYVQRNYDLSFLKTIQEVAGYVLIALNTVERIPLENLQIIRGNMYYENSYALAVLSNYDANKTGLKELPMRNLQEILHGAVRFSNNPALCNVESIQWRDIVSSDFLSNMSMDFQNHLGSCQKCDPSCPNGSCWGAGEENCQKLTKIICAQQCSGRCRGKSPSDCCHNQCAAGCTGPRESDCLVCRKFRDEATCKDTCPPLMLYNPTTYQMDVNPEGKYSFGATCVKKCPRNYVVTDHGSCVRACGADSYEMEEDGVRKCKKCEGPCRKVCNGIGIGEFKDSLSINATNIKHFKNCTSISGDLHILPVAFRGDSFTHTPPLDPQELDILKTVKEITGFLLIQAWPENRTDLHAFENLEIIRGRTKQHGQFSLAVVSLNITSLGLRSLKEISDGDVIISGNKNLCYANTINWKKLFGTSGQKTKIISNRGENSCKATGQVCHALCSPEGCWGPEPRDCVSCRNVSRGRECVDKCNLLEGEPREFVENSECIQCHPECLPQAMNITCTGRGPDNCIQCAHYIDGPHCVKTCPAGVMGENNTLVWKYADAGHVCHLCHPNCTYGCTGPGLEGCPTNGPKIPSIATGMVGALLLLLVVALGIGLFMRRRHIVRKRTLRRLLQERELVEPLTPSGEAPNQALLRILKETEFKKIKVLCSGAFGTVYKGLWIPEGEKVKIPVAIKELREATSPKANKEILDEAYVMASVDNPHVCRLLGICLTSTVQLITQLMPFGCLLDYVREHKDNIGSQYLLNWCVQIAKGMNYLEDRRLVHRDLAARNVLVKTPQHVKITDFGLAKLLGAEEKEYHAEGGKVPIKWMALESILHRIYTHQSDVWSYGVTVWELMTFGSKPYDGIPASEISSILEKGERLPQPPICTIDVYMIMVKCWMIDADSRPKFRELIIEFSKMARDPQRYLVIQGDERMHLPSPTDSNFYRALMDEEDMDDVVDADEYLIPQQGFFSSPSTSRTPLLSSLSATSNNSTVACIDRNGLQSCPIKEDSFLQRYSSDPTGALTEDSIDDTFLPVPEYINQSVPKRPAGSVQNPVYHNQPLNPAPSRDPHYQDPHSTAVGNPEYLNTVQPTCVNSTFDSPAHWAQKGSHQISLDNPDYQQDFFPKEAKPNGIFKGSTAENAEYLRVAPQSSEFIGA
compound,measurement,setting,value
COc1ccc2c(c1)[C@]1(C[C@H]1c1ccc3c(/C=C/c4ccc(CN5C[C@@H](C)O[C@@H](C)C5)cc4)n[nH]c3c1)C(=O)N2 [CFI-400945],% Inhibition,[1],3% and 2%
same,% Inhibition Average,[2],-5%
same,% Inhibition Duplicate #1,[2],-13%
same,% Inhibition Duplicate #2,[2],3%
same,% Inhibition,[3],13% and 10%
same,% Inhibition,[4],5% and 6%
same,% Inhibition,[5],11% and 7%
same,% Inhibition,[6],8% and 7%
same,% Inhibition,[7],55% and 58%
same,% Inhibition,[8],10% and 16%
same,% Inhibition,[9],4% and 3%
same,% Inhibition Average,[10],6%
same,% Inhibition Duplicate #1,[10],0%
same,% Inhibition Duplicate #2,[10],11%
same,% Inhibition,[11],3% and 4%
same,% Inhibition,[12],1% and 3%
same,% Inhibition,[13],8% and 9%
same,% Inhibition Average,[14],4%
same,% Inhibition Duplicate #1,[14],5%
same,% Inhibition Duplicate #2,[14],3%
same,% Inhibition Average,[15],5%
same,% Inhibition Duplicate #1,[15],6%
same,% Inhibition Duplicate #2,[15],4%
same,% Inhibition,[16],9% and 18%
same,% Inhibition,[17],0% and -1%
same,% Inhibition,[18],8% and 3%
same,% Inhibition,[19],-3% and 2%
same,% Inhibition,[20],7% and 2%
same,% Inhibition Average,[21],5%
same,% Inhibition Duplicate #1,[21],6%
same,% Inhibition Duplicate #2,[21],3%
same,% Inhibition,[22],2% and 3%
same,% Inhibition,[23],14% and 10%
